This passage reports IC50 results from patent EP0857721A1, “ACRIDONE COMPOUNDS” (Eisai Co., Ltd., priority 1995, dated 1997).

The test concerns RBL-2H3 cells. Briefly: Inhibition of serotonin liberation from IgE-sensitized, antigen-stimulated RBL-2H3 cells ([3H]-serotonin). It counts as cell-based. The following applies: Rattus norvegicus; IgE-sensitized RBL-2H3 cells stimulated with specific antigen; [3H]-labeled serotonin. The text has this: Under the action of an antigen specific to the IgE antibody, RBL-2H3 cells, i.e., a cell line originating in rat cells, not only liberate histamine and serotonin but also produce and liberate cytokines such as TNF" serving as an inflammatory mediator and prostaglandins. In this experimental system, the effects of the compounds of the present invention of inhibiting the liberation of various mediators were examined by using serotonin as an indication.
The cells were labeled with [^3H]-labeled serotonin and, at the same time, sensitized with the IgE antibody. Next, these cells were incubated in the presence of the acridone compounds according to the present invention and then stimulated with the specific antigen. Then the serotonin liberation inhibitory activity of each acridone compound was calculated from the amount of the [^3H]-labeled serotonin thus liberated into the medium due to the above-mentioned stimulation and the amount of the [^3H]-labeled serotonin liberated into the medium by the same experimental procedure as the one described above but adding no acridone compound of the present invention.
As to `Cc1ccc2c(=O)c3c(CCC(=O)O)cccc3n(CCCNCc3ccccc3)c2c1C` [Compound 5], the concentration for half-maximal inhibition (IC50) was 3 µM.

Regarding `Cc1ccc2c(=O)c3c(C(C)CC(=O)O)cccc3n(CCCNCc3ccccc3)c2c1C` (centres unmarked) [Compound 8], the IC50 stood at 8 µM.

Consider `Cc1ccc2c(=O)c3c(C(C)CC(=O)O)cccc3n(CCCNCc3ccc(Cl)cc3Cl)c2c1C` (centres unmarked) [Compound 9], for which the IC50 worked out at 10 µM.

`Cc1ccc2c(=O)c3c(CC(=O)O)cccc3n(CCCNCc3cc4ccccc4o3)c2c1C` [Compound 11]: the IC50 was 0.5 µM.

Turning to `Cc1ccc2c(=O)c3c(CC(=O)O)cccc3n(CCCNCc3ccco3)c2c1C` [Compound 12], the IC50 was 0.5 µM.

`Cc1ccc2c(=O)c3c(CC(=O)O)cccc3n(CCCN)c2c1C` [Compound 14]: the IC50 worked out at 10 µM.

Regarding `Cc1ccc2c(=O)c3c(C(C)CC(=O)O)cccc3n(CCCN)c2c1C` (centres unmarked) [Compound 18], the IC50 was 10 µM.

Take `CCOC(=O)Cc1cccc2c1c(=O)c1ccc(C)c(C)c1n2CCCNCc1ccccc1` [Compound 21]: the IC50 is 8 µM.

Regarding `COC(=O)CCc1cccc2c1c(=O)c1ccc(C)c(C)c1n2CCCNCc1ccccc1` [Compound 22], the IC50 was 3 µM.

Turning to `Cc1ccc2c(=O)c3c(CC(=O)O)cccc3n(CCCNCc3ccc(Cl)c(Cl)c3O)c2c1C` [Compound 23], the 50% inhibitory concentration (IC50) was found to be 8 µM.

As to `Cc1ccc2c(=O)c3c(CC(=O)O)cccc3n(CCCNCc3ccc(Cl)c(O)c3Cl)c2c1C` [Compound 24], the IC50 was found to be 8 µM.

For `Cc1ccc2c(=O)c3c(CC(=O)O)cccc3n(CCCN(C)Cc3ccc(Cl)c(O)c3Cl)c2c1C` [Compound 25], the IC50 worked out at 6 µM.

For `Cc1ccc(CNCCCn2c3cccc(CC(=O)O)c3c(=O)c3ccc(C)c(C)c32)c(C)c1` [Compound 26], the IC50 is 10 µM.

As to `Cc1ccc(CN(C)CCCn2c3cccc(CC(=O)O)c3c(=O)c3ccc(C)c(C)c32)c(C)c1` [Compound 27], the IC50 is 10 µM.

As to `Cc1ccc2c(=O)c3c(CC(=O)O)cccc3n(CCCNCc3ccc(C(F)(F)F)cc3C(F)(F)F)c2c1C` [Compound 29], the half-inhibitory concentration (IC50) turned out to be 8 µM.

On to `Cc1ccc2c(=O)c3c(CC(=O)O)cccc3n(CCCNCc3ccc(Cl)cc3O)c2c1C` [Compound 30], for which the IC50 stood at 2 µM.

On to `Cc1ccc2c(=O)c3c(CC(=O)O)cccc3n(CCCNCc3ccc(O)cc3)c2c1C` [Compound 31], for which the IC50 amounted to 1 µM.

In the case of `Cc1ccccc1CNCCCn1c2ccccc2c(=O)c2ccc(C)c(C)c21` [Compound 32], the IC50 is 1 µM.

Regarding `Cc1cccc(CNCCCn2c3ccccc3c(=O)c3ccc(C)c(C)c32)c1` [Compound 33], the half-inhibitory concentration (IC50) was found to be 2 µM.

With `Cc1ccc2c(=O)c3ccccc3n(CCCNCc3cccc(C#N)c3)c2c1C` [Compound 35], the IC50 turned out to be 3 µM.

`Cc1ccc2c(=O)c3ccccc3n(CCCNCc3ccc(C#N)cc3)c2c1C` [Compound 36]: the half-maximal inhibitory concentration (IC50) was determined as 2 µM.

Take `Cc1ccc2c(=O)c3ccccc3n(CCCNCc3cccc(C(F)(F)F)c3)c2c1C` [Compound 38]: the concentration for half-maximal inhibition (IC50) was determined as 2 µM.

Regarding `Cc1ccc2c(=O)c3ccccc3n(CCCNCc3ccccc3F)c2c1C` [Compound 41], the IC50 stood at 3 µM.

For `Cc1ccc2c(=O)c3ccccc3n(CCCNCc3cccc(F)c3)c2c1C` [Compound 42], the IC50 was found to be 2 µM.

`Cc1ccc2c(=O)c3ccccc3n(CCCNCc3ccc(F)cc3)c2c1C` [Compound 43]: the half-inhibitory concentration (IC50) worked out at 2 µM.

As for `Cc1ccc2c(=O)c3ccccc3n(CCCNCc3ccccc3Br)c2c1C` [Compound 44], the IC50 amounted to 5 µM.

As to `Cc1ccc2c(=O)c3ccccc3n(CCCNCc3cccc(Br)c3)c2c1C` [Compound 45], the IC50 was determined as 2 µM.

With `Cc1cc(CNCCCn2c3ccccc3c(=O)c3ccc(C)c(C)c32)ccc1O` [Compound 46], the 50% inhibitory concentration (IC50) came to 4 µM.

Turning to `Cc1cc(CNCCCn2c3ccccc3c(=O)c3ccc(C)c(C)c32)cc(C)c1O` [Compound 47], the concentration for half-maximal inhibition (IC50) is 7 µM.

Consider `Cc1ccc2c(=O)c3ccccc3n(CCCNCc3c(Cl)cccc3Cl)c2c1C` [Compound 48], for which the IC50 worked out at 1 µM.

For the compound `COC(=O)c1ccc(CNCCCn2c3ccccc3c(=O)c3ccc(C)c(C)c32)cc1` [Compound 50], the concentration for half-maximal inhibition (IC50) stood at 4 µM.

As for `Cc1ccc2c(=O)c3ccccc3n(CCCNCc3ccc(C(N)=O)cc3)c2c1C` [Compound 55], the half-inhibitory concentration (IC50) is 10 µM.

As to `Cc1ccc2c(=O)c3ccccc3n(CCCNCc3cccc(C(=O)O)c3)c2c1C` [Compound 56], the IC50 worked out at 7 µM.

For `Cc1ccc2c(=O)c3ccccc3n(CCCNCc3ccccc3C(F)(F)F)c2c1C` [Compound 61], the concentration for half-maximal inhibition (IC50) was determined as 1 µM.

Take `Cc1ccc(CNCCCn2c3ccccc3c(=O)c3ccc(C)c(C)c32)cc1` [Compound 62]: the IC50 came to 1 µM.

In the case of `Cc1ccc2c(=O)c3ccccc3n(CCCNCc3ccccc3Cl)c2c1C` [Compound 63], the IC50 was determined as 10 µM.

For `Cc1ccc2c(=O)c3ccccc3n(CCCNCc3cccc(Cl)c3)c2c1C` [Compound 64], the IC50 amounted to 5 µM.

Regarding `Cc1ccc2c(=O)c3ccccc3n(CCCNCc3ccc(Br)cc3)c2c1C` [Compound 66], the half-inhibitory concentration (IC50) came to 5 µM.

Turning to `Cc1ccc2c(=O)c3ccccc3n(CCCNCc3ccc(Cl)cc3Cl)c2c1C` [Compound 67], the IC50 is 1 µM.

On to `CNS(=O)(=O)c1ccc(CNCCCn2c3ccccc3c(=O)c3ccc(C)c(C)c32)cc1` [Compound 69], for which the half-inhibitory concentration (IC50) stood at 7 µM.

With `Cc1ccc2c(=O)c3ccccc3n(CCCNCc3ccc(S(=O)(=O)N(C)C)cc3)c2c1C` [Compound 70], the IC50 was found to be 8 µM.

Consider `Cc1ccc2c(=O)c3ccccc3n(CCCNOCc3ccccc3)c2c1C` [Compound 72], for which the half-inhibitory concentration (IC50) is 2 µM.

In the case of `Cc1ccc2c(=O)c3ccccc3n(CCCN(CCC#N)Cc3ccccc3)c2c1C` [Compound 75], the half-inhibitory concentration (IC50) amounted to 3 µM.

On to `Cc1ccc2c(=O)c3ccccc3n(CCCN(CCC(N)=O)Cc3ccccc3)c2c1C` [Compound 76], for which the half-maximal inhibitory concentration (IC50) is 4 µM.

With `Cc1ccc2c(=O)c3ccccc3n(CCCN(CCO)Cc3ccccc3)c2c1C` [Compound 77], the IC50 worked out at 1 µM.

`Cc1cc(CN(C)CCCn2c3ccccc3c(=O)c3ccc(C)c(C)c32)cc(C)c1O` [Compound 79]: the IC50 came to 7 µM.

For the compound `Cc1ccc2c(=O)c3ccccc3n(CCCNc3cccc(-c4nnn[nH]4)c3)c2c1C` [Compound 80], the IC50 came to 11 µM.

With `COc1cccc(NCCCn2c3ccccc3c(=O)c3ccc(C)c(C)c32)c1` [Compound 81], the IC50 came to 10 µM.

For `Cc1ccc2c(=O)c3ccccc3n(CCCN(C3CCCCC3)C3CCCCC3)c2c1C` [Compound 83], the 50% inhibitory concentration (IC50) was determined as 5 µM.

With `Cc1ccc(CNCCCn2c3cc(F)ccc3c(=O)c3ccc(C)c(C)c32)cc1` [Compound 86], the IC50 was 3 µM.

`COc1ccc2c(=O)c3ccc(C)c(C)c3n(CCCNCc3ccc(C)cc3)c2c1` [Compound 87]: the IC50 was 2 µM.

Consider `COc1cccc2c1c(=O)c1ccc(C)c(C)c1n2CCCNCc1ccc(C)cc1` [Compound 88], for which the half-inhibitory concentration (IC50) amounted to 2 µM.

As to `CCN(CCCn1c2cccc(CC(=O)O)c2c(=O)c2ccc(C)c(C)c21)Cc1ccccc1` [Compound 91], the IC50 was determined as 8 µM.

Turning to `Cc1ccc(CN(C)CCCn2c3cccc(CC(=O)O)c3c(=O)c3ccc(C)c(C)c32)cc1` [Compound 95], the concentration for half-maximal inhibition (IC50) was found to be 10 µM.

As for `Cc1ccc2c(=O)c3c(CC(=O)O)cccc3n(CCCN(C)Cc3cccc4ccccc34)c2c1C` [Compound 97], the IC50 is 10 µM.

As for `COc1ccc(CNCCCn2c3cccc(CC(=O)O)c3c(=O)c3ccc(C)c(C)c32)c(OC)c1` [Compound 99], the concentration for half-maximal inhibition (IC50) came out at 10 µM.

On to `Cc1ccc2c(=O)c3c(CC(=O)O)cccc3n(CCCNCc3ccc(F)cc3F)c2c1C` [Compound 100], for which the IC50 came out at 10 µM.

Turning to `Cc1ccc2c(=O)c3c(CC(=O)O)cccc3n(CCCNCc3ccc(F)c(F)c3)c2c1C` [Compound 103], the IC50 was determined as 3 µM.

On to `Cc1ccc2c(=O)c3c(CC(=O)O)cccc3n(CCCNCc3ccc(F)cc3)c2c1C` [Compound 104], for which the IC50 came to 5 µM.

As to `Cc1ccc2c(=O)c3c(CC(=O)O)cccc3n(CCCNCc3ccccc3Cl)c2c1C` [Compound 105], the IC50 is 5 µM.

On to `Cc1ccc2c(=O)c3c(CC(=O)O)cccc3n(CCCNCc3cccc(Cl)c3)c2c1C` [Compound 106], for which the IC50 is 10 µM.

Consider `Cc1ccc2c(=O)c3c(CC(=O)O)cccc3n(CCCNCc3ccccc3F)c2c1C` [Compound 107], for which the half-inhibitory concentration (IC50) is 6 µM.

With `Cc1ccc2c(=O)c3c(CC(=O)O)cccc3n(CCCNCc3cccc(F)c3)c2c1C` [Compound 108], the IC50 stood at 5 µM.

For the compound `Cc1ccc2c(=O)c3c(CC(=O)O)cccc3n(CCCN(CCO)Cc3ccccc3)c2c1C` [Compound 109], the IC50 worked out at 3 µM.

Consider `Cc1ccc2c(=O)c3c(CC(=O)O)cccc3n(CCCN(C)CCc3ccccc3)c2c1C` [Compound 113], for which the half-inhibitory concentration (IC50) was 8 µM.

`Cc1ccc2c(=O)c3c(CC(=O)O)cccc3n(CCCNCc3ccccc3C(F)(F)F)c2c1C` [Compound 116]: the concentration for half-maximal inhibition (IC50) worked out at 3 µM.

Turning to `Cc1ccc2c(=O)c3ccccc3n(Cc3ccccc3CN)c2c1C` [Compound 117], the half-inhibitory concentration (IC50) worked out at 10 µM.

Regarding `Cc1ccc2c(=O)c3ccccc3n(Cc3ccc(CN)cc3)c2c1C` [Compound 119], the half-inhibitory concentration (IC50) is 4 µM.

In the case of `Cc1ccc2c(=O)c3ccccc3n(Cc3cccc(CN)n3)c2c1C` [Compound 120], the IC50 came to 8 µM.

As for `Cc1ccc2c(=O)c3ccccc3n(Cc3ccc(CNCc4ccco4)cc3)c2c1C` [Compound 125], the IC50 is 10 µM.

With `Cc1ccc2c(=O)c3ccccc3n(Cc3ccc(CNCc4ncc[nH]4)cc3)c2c1C` [Compound 126], the half-inhibitory concentration (IC50) came to 10 µM.
